Data on three molecules can be found in patent US20200239832A1, “TOLERANCE OF MICROBIAL CELLS AGAINST ORTHO-AMINOBENZOATE IN PRESENCE OF ALKALI IONS AT NEUTRAL PH” (priority 2017, published 2020).

Holding throughout (assay type): cell-based, Corynebacterium glutamicum
Assay [1] has as its system C. glutamicum ATCC 13032. In words: Comparison of metabolic activity after NH4-oAB and Na-oAB addition, batch cultivation in 1 L bioreactors (Example 3). The settings on record: for biomass accumulation after oAB addition: 40 mL of 500 g/L oAB stock solution at pH 7 added after 6.4 h and 23.6 h, FIG. 3. The procedure:
FIG. 3: Influence of Na-oAB and NH4-oAB addition on oAB resistance during batch cultivation in 1 L scale with C. glutamicum ATCC 13032. Filled symbols: addition of 40 mL of 500 g/L oAB stock solution (oAB dissolved with NaOH at pH 7) after 6.4 h and 23.6 h. Open symbols: addition of 40 mL of 500 g/L oAB stock solution (oAB dissolved with NH4OH at pH 7) after 6.4 h and 23.6 h. Initial cultivation volume VL=1 L, temperature 30° C., pH=7 controlled with NH4OH (10 w % NH3), gassing rate with air=0.2 L/min, pO2 controlled at 30% air saturation by adjusting the stirrer speed between 200 and 1200 rpm.
The influence of NH4 was tested with C. glutamicum ATCC 13032 (without further genetic modifications, not modified by evolutionary engineering) using two 1 L bioreactors filled with sterile cultivation medium including the following initial concentrations: […], 5 g/L (NH4)2SO4, 1 g/L KH2PO4, 1 g/L K2HPO4, 0.25 g/L MgSO4.7 H2O, 0.01 g/L CaCl2.2 H2O, 2 mg/L biotin (vitamin B7), 0.03 g/L protocatechuic acid (3,4-Dihydroxybenzoic acid), 0.01 g/L MnSO4.H2O, 0.01 g/L FeSO4.7H2O, 1 mg/L ZnSO4.7H2O, 0.2 mg/L CuSO4.5H2O and 0.02 mg/L NiCl2.6H2O.
The preculture medium for the cultivation in shake flasks contained additionally 42 g/L MOPS buffer, 3.7 g/L brain heart infusion broth, 5 g/L urea (CH4N2O) and 20 g/L (NH4)2SO4 (instead of 5 g/L). The preculture was cultivated in 300 mL shake flasks with a liquid volume of 25 mL at a temperatur of 28° C. and a shaking frequency of 180 rpm until OD600>20 was reached.
During the fermentation the temperature was controlled at 30° C. and pH was kept constant at pH=7 by adding aqueous NH4OH solution (10 w % NH3). The gassing rate was adjusted to 0.2 L/min air and the dissolved oxygen tension was controlled at 30% air saturation by adjusting the stirrer speed between 200 rpm and 1200 rpm.
40 mL of a 500 g/L oAB stock solution (oAB dissolved with NaOH at pH 7) was added to reactor 1 after 6.4 h and 23.6 h (filled symbols) and 40 mL of a 500 g/L oAB stock solution (oAB dissolved with NH4OH at pH 7) was added after 6.4 h and 23.6 h to reactor 2 (open symbols)
From this it follows that the toxicity of oAB on C. glutamicum ATCC 13032 in presence of high Na+ concentrations is reduced compared to the toxicity in presence of high NH4^+ concentrations.

Assay [2] deals with C. glutamicum strain derived from ATCC 13032 by evolutionary engineering. The assay is described as follows: Comparison of metabolic activity after NH4-oAB and Na-oAB addition, batch cultivation in 1 L bioreactors (Example 2). The settings on record: 40 mL of 500 g/L oAB stock solution at pH 7 added after 7 h and 24 h; FIG. 2. The procedure:
FIG. 2: Influence of Na-oAB and NH4-oAB addition on oAB resistance during batch cultivation in 1 L scale with C. glutamicum ATCC 13032. Filled symbols: addition of 40 mL of […] stock solution (oAB dissolved with NaOH at pH 7) after 7 h and 24 h. Open symbols: addition of 40 mL of 500 g/L oAB stock solution (oAB dissolved with NH4OH at pH 7) after 7 h and 24 h. Both bioreactors: addition of 36 g/L glucose (added as stock solution) after 7.5 h and 24.5 h to prevent a glucose limitation. Initial cultivation volume VL=1 L, temperature 30° C., pH=7 controlled with NH4OH (10 w % NH3), gassing rate with air=0.2 L/min, pO2 controlled at 30% air saturation by adjusting the stirrer speed between 200 and 1200 rpm.
A C. glutamicum strain derived from ATCC 13032 was used to compare the metabolic activity after NH4-oAB and Na-oAB addition during the cultivation. This strain was derived from Corynebacterium glutamicum ATCC 13032 by evolutionary engineering in order to increase its resistance against oAB.
It was not further genetically modified. Thus it was not capable of oAB-production. For this purpose, two 1 L bioreactors were filled with sterile cultivation medium including the following initial concentrations: 20 g/L glucose, 5 g/L (NH4)2SO4, 1 g/L KH2PO4, 1 g/L K2HPO4, 0.25 g/L MgSO4.7 H2O, 0.01 g/L CaCl2.2 H2O, 2 mg/L biotin (vitamin B7), 0.03 g/L protocatechuic acid (3,4-Dihydroxybenzoic acid), 0.01 g/L MnSO4.H2O, 0.01 g/L FeSO4.7H2O, 1 mg/L ZnSO4.7H2O, 0.2 mg/L CuSO4.5H2O and 0.02 mg/L NiCl2.6H2O.
The preculture medium for the cultivation in shake flasks contained additionally 42 g/L MOPS buffer, 3.7 g/L brain heart infusion broth, 5 g/L urea (CH4N2O) and […] (instead of 5 g/L). The preculture was cultivated in 300 mL shake flasks with a liquid volume of 25 mL at a temperatur of 28° C. and a shaking frequency of 180 rpm until OD600>20 was reached.

Assay [3] relates to modified C. glutamicum production strain. In words: Evaluation of the maximum tolerable oAB concentration, batch cultivation in 1 L bioreactor. The procedure: FIG. 1: Evaluation of the maximum tolerable oAB concentration during batch cultivation in a 1 L lab-scale bioreactor with a modified C. glutamicum production strain. Addition of 20 mL of a 500 g/L oAB stock solution (oAB dissolved with NaOH at pH 7) after 23 h and 39 h, 48 h (two times), 64 h (two times) and 71 h (two times) and addition of glucose solution after 40 h, 48 h, 63 h, 65 and 71.5 h to prevent a glucose limitation. Initial cultivation volume VL=1 L, temperature 30° C., pH=7 controlled by adding NH4OH (10 w % NH3) during cultivation, gassing rate with air=0.2 L/min, pO2 controlled at 30% air saturation by adjusting the stirrer speed between 200 and 1200 rpm.
The maximum tolerable oAB concentration in the presence of sodium ions in the medium was tested with a modified C. glutamicum production strain. This strain was derived from Corynebacterium glutamicum ATCC 13032 by evolutionary engineering in order to increase its resistance against oAB.
This strain was then genetically modified to make it capable of oAB-production. […]

Setting [4] is: according to FIG. 3, NH4+ as counter ion.

As for `Nc1ccccc1C(=O)[O-].[Na+]` [Na-oAB], in assay [1], the “biomass accumulation after oAB addition” value is “biomass accumulation continued”. For the same molecule, in assay [2], the “OTR signal after oAB addition” value is on record as “continued to increase” and the “biomass concentration after oAB addition” value is “continued to increase”.

Regarding `Nc1ccccc1C(=O)O` [oAB, 2-aminobenzoic acid], in assay [3] (oAB added stepwise as sodium salt (dissolved with NaOH at pH 7), pH 7 controlled with NH4OH, 30° C.), the “oAB concentration at which growth (increase in biomass concentration) was still observed” value worked out at 80 g/L. Moreover, in assay [3] (oAB increased from 80 g/L to 100 g/L after 71 h, added as sodium salt, pH 7, 30° C.), the “oAB concentration resulting in a decrease of the metabolic activity (declining OTR signal) and no further increase in biomass” value amounted to 100 g/L.

`N.Nc1ccccc1C(=O)O` [NH4-oAB]: the “biomass accumulation after oAB addition” value in assay [1] is on record as “growth inhibition after 24 h”. In addition, in assay [1] (setting [4]), the “o-aminobenzoate concentration above which the metabolic activity of bacterial cells (OTR) is limited” value was “more than 25 g/L” and the “o-aminobenzoate concentration at which cell growth (dry weight) stops” value is recorded as above 50 g/L. Besides, in assay [2], the “OTR signal after oAB addition” value is “constant OTR signal” and the “biomass concentration after oAB addition” value was “reduced biomass accumulation”.
